Row | Compound | logP
1 | N#CN=[N+]([O-])c1ccc(C#N)cc1 | 1.18
2 | N#CN=[N+]([O-])c1ccc(F)cc1 | 1.8
3 | N#CN=[N+]([O-])c1cccc2ccccc12 | 3.17
4 | CN(C)c1ccc(/[N+]([O-])=N/C#N)cc1 | 2.3
5 | COc1ccc(/[N+]([O-])=N/C#N)cc1 | 2.15
6 | N#C/N=[N+](\[O-])c1cccc(Cl)c1 | 2.4
7 | N#CN=[N+]([O-])c1ccc(C(F)(F)F)cc1 | 2.47
8 | N#CN=[N+]([O-])c1cccc(C#N)c1 | 1.15
9 | N#CN=[N+]([O-])c1ccnc2ccccc12 | 2.07
10 | N#CN=[N+]([O-])c1ccccc1 | 1.87
11 | N#C/N=[N+](\[O-])c1ccc([N+](=O)[O-])cc1 | 1.51
12 | N#CN=[N+]([O-])c1cccc(C(F)(F)F)c1 | 2.52
13 | N#CN=[N+]([O-])c1ccc(Cl)cc1 | 2.33
14 | CCNc1nonc1N | 0.51
15 | COc1cccc(/[N+]([O-])=N/C#N)c1 | 2.24
16 | Cc1cccc([N+]([O-])=NC#N)c1 | 2.49
17 | N#C/N=[N+](\[O-])c1cccc(Br)c1 | 2.56
18 | N#C/N=[N+](\[O-])c1cccc(F)c1 | 1.85
19 | N#CN=[N+]([O-])c1ncccn1 | -0.13
20 | Cc1ccc([N+]([O-])=NC#N)cc1 | 2.39
21 | N#C/N=[N+](\[O-])c1cccc([N+](=O)[O-])c1 | 1.45
22 | N#CN=[N+]([O-])c1cnccn1 | 0.1
23 | N#C/N=[N+](\[O-])c1ccc(Br)cc1 | 2.5
24 | N#C/N=[N+](\[O-])c1ccccn1 | 0.53
